Literature values in paper PMC9762682, “Tocotrienols: Exciting Biological and Pharmacological Properties of Tocotrienols and Naturally Occurring Compounds, Part II” (Annals of clinical case reports, 2022).
Where two headings read alike, the source gives them in different places. Marks after values point to notes of the source that are not given here.

What was measured:
[1] = test system: TNF-α; conditions: LPS-induced macrophages of wild type (C57BL/6) control group
[2] = design: method as in ref 14 = [14]; PMID 27493840; doi:10.4172/2155-9880.1000434; 14. Qureshi AA , Khan DA , Saleem S , Silswal N , Trias AM , Tan B , Pharmacokinetics and bioavailability of Annatto δ-tocotrienol in healthy fed subjects . J Clin Exp Cardiol . 2015; 6 : 11 . 10.417
[3] = test system: TNF-α; conditions: LPS-induced macrophages of PPAR-α knockout female mice
[4] = test system: plasma miRNAs; design: method as in ref 14 = [14]; PMID 27493840; doi:10.4172/2155-9880.1000434; 14. Qureshi AA , Khan DA , Saleem S , Silswal N , Trias AM , Tan B , Pharmacokinetics and bioavailability of Annatto δ-tocotrienol in healthy fed subjects . J Clin Exp Cardiol . 2015; 6 : 11 . 10.417; conditions: for plasma miR122a / plasma miR-1 / plasma miR-7 / plasma miR-9 / plasma miR-15b / plasma miR-17-5p / plasma miR-19a / plasma miR-19b / plasma miR-24 / plasma miR-26a / plasma miR-34a / plasma miR-106a / plasma miR-107 / plasma miR-132 / plasma miR-143 / plasma miR-145 / plasma miR-148a / plasma miR-181a / plasma miR-182 / plasma miR-192 / plasma miR-194 / plasma miR-196a / plasma miR-199a / plasma miR-204 / plasma miR-205 / plasma miR-222 / plasma miR-342: 0-h = 100
[5] = plasma tocol after single 125 mg δ-tocotrienol dose, healthy fed subjects
[6] = plasma tocol after single 125 mg δ-tocotrienol dose, healthy fed subjects, listed as δ-tocotrienol
[7] = plasma tocol after single 250 mg δ-tocotrienol dose, healthy fed subjects
[8] = plasma tocol after single 250 mg δ-tocotrienol dose, healthy fed subjects, listed as δ-tocotrienol
[9] = plasma tocol after single 500 mg δ-tocotrienol dose, healthy fed subjects
[10] = plasma tocol after single 500 mg δ-tocotrienol dose, healthy fed subjects, listed as δ-tocotrienol
[11] = δ-tocotrienol treatment, pharmacokinetic study

Time of clearance (Cl-T) ([2]; 125 mg/d Annatto δ-tocotrienol): 0.049 h⁻¹
Time of clearance (Cl-T) ([2]; 250 mg/d Annatto δ-tocotrienol): 0.045 h⁻¹
Time of clearance (Cl-T) ([2]; 500 mg/d Annatto δ-tocotrienol): 0.030 h⁻¹
time of appearance in the plasma ([2]; after δ-tocotrienol administration to well-fed subjects): > 2 h
Apparent volume of distribution (Vd/f) [2, 5]: 0.179 ± 0.035^a
Elimination of Half-life time (t1/2) [2, 5]: 1.74 ± 0.36^a h
Elimination rate constant (ke) [2, 5]: 0.381 ± 0.059^a h-1
Plasma Peak Concentration (Cmax) [2, 5]: 828.82 ± 24.28^a ng/mL
Time of clearance (Cl-T) [2, 5]: 0.049 ± 0.004^a I/h
Time to achieve plasma peak (Tmax) [2, 5]: 3.00 h
Area Under Curve-0 - 10 (AUC0-10) [2, 6]: 2460 ng·h/mL
Plasma Peak Concentration (Cmax) [2, 6]: 829 ng/mL
Apparent volume of distribution (Vd/f) [2, 7]: 0.114 ± 0.011^b
Elimination of Half-life time (t1/2) [2, 7]: 1.39 ± 0.22^a h
Elimination rate constant (ke) [2, 7]: 0.401 ± 0.039^b h-1
Plasma Peak Concentration (Cmax) [2, 7]: 1920.36 ± 57.99^b ng/mL
Time of clearance (Cl-T) [2, 7]: 0.045 ± 0.002^a I/h
Time to achieve plasma peak (Tmax) [2, 7]: 3.00 h
Area Under Curve-0 - 10 (AUC0-10) [2, 8]: 5410 ng·h/mL
Plasma Peak Concentration (Cmax) [2, 8]: 1920 ng/mL
Apparent volume of distribution (Vd/f) [2, 9]: 0.613 ± 0.102^c
Elimination of Half-life time (t1/2) [2, 9]: 2.54 ± 0.05^b h
Elimination rate constant (ke) [2, 9]: 0.050 ± 0.008^c h-1
Plasma Peak Concentration (Cmax) [2, 9]: 3278.00 ± 124.13^c ng/mL
Time of clearance (Cl-T) [2, 9]: 0.030 ± 0.001^b I/h
Area Under Curve-0 - 10 (AUC0-10) [2, 10]: 15000 ng·h/mL
Elimination rate constant (ke) [2, 10]: 0.265 h⁻¹
Time to achieve plasma peak (Tmax) [2, 10]: 6 h
bioavailability ([2]; when tocotrienols are supplemented in absence of tocopherols): better bioavailability
Compound: CC(C)=CCC/C(C)=C/CC/C(C)=C/CC[C@]1(C)CCc2cc(O)cc(C)c2O1 [δ-Tocotrienol]
effect on secretion of TNF-α [1]: inhibition
effect on secretion of TNF-α [3]: activation
plasma miR122a ([4]; 3-h, 125 mg δ-tocotrienol): 166%
plasma miR-1 ([4]; 3-h, 125 mg δ-tocotrienol): 78%
plasma miR-7 ([4]; 3-h, 125 mg δ-tocotrienol): 94%
plasma miR-9 ([4]; 3-h, 125 mg δ-tocotrienol): 88%
plasma miR-15b ([4]; 3-h, 125 mg δ-tocotrienol): 110%
plasma miR-17-5p ([4]; 3-h, 125 mg δ-tocotrienol): 106%
plasma miR-19a ([4]; 3-h, 125 mg δ-tocotrienol): 95%
plasma miR-19b ([4]; 3-h, 125 mg δ-tocotrienol): 91%
plasma miR-24 ([4]; 3-h, 125 mg δ-tocotrienol): 77%
plasma miR-26a ([4]; 3-h, 125 mg δ-tocotrienol): 80%
plasma miR-34a ([4]; 3-h, 125 mg δ-tocotrienol): 72%
plasma miR-106a ([4]; 3-h, 125 mg δ-tocotrienol): 74%
plasma miR-107 ([4]; 3-h, 125 mg δ-tocotrienol): 156%
plasma miR-132 ([4]; 3-h, 125 mg δ-tocotrienol): 199%
plasma miR-143 ([4]; 3-h, 125 mg δ-tocotrienol): 63%
plasma miR-145 ([4]; 3-h, 125 mg δ-tocotrienol): 54%
plasma miR-148a ([4]; 3-h, 125 mg δ-tocotrienol): 208%
plasma miR-181a ([4]; 3-h, 125 mg δ-tocotrienol): 48%
plasma miR-182 ([4]; 3-h, 125 mg δ-tocotrienol): 76%
plasma miR-192 ([4]; 3-h, 125 mg δ-tocotrienol): 28%
plasma miR-194 ([4]; 3-h, 125 mg δ-tocotrienol): 50%
plasma miR-196a ([4]; 3-h, 125 mg δ-tocotrienol): 65%
plasma miR-199a ([4]; 3-h, 125 mg δ-tocotrienol): 81%
plasma miR-204 ([4]; 3-h, 125 mg δ-tocotrienol): 45%
plasma miR-205 ([4]; 3-h, 125 mg δ-tocotrienol): 39%
plasma miR-222 ([4]; 3-h, 125 mg δ-tocotrienol): 55%
plasma miR-342 ([4]; 3-h, 125 mg δ-tocotrienol): 70%
plasma miR122a ([4]; 6-h, 500 mg δ-tocotrienol): 196%
plasma miR-1 ([4]; 6-h, 500 mg δ-tocotrienol): 63%
plasma miR-7 ([4]; 6-h, 500 mg δ-tocotrienol): 85%
plasma miR-9 ([4]; 6-h, 500 mg δ-tocotrienol): 44%
plasma miR-15b ([4]; 6-h, 500 mg δ-tocotrienol): 132%
plasma miR-17-5p ([4]; 6-h, 500 mg δ-tocotrienol): 168%
plasma miR-19a ([4]; 6-h, 500 mg δ-tocotrienol): 36%
plasma miR-19b ([4]; 6-h, 500 mg δ-tocotrienol): 70%
plasma miR-24 ([4]; 6-h, 500 mg δ-tocotrienol): 45%
plasma miR-26a ([4]; 6-h, 500 mg δ-tocotrienol): 62%
plasma miR-34a ([4]; 6-h, 500 mg δ-tocotrienol): 59%
plasma miR-106a ([4]; 6-h, 500 mg δ-tocotrienol): 56%
plasma miR-107 ([4]; 6-h, 500 mg δ-tocotrienol): 173%
plasma miR-132 ([4]; 6-h, 500 mg δ-tocotrienol): 145%
plasma miR-143 ([4]; 6-h, 500 mg δ-tocotrienol): 36%
plasma miR-145 ([4]; 6-h, 500 mg δ-tocotrienol): 44%
plasma miR-148a ([4]; 6-h, 500 mg δ-tocotrienol): 233%
plasma miR-181a ([4]; 6-h, 500 mg δ-tocotrienol): 21%
plasma miR-182 ([4]; 6-h, 500 mg δ-tocotrienol): 64%
plasma miR-192 ([4]; 6-h, 500 mg δ-tocotrienol): 21%
plasma miR-194 ([4]; 6-h, 500 mg δ-tocotrienol): 21%
plasma miR-196a ([4]; 6-h, 500 mg δ-tocotrienol): 43%
plasma miR-199a ([4]; 6-h, 500 mg δ-tocotrienol): 65%
plasma miR-204 ([4]; 6-h, 500 mg δ-tocotrienol): 41%
plasma miR-205 ([4]; 6-h, 500 mg δ-tocotrienol): 45%
plasma miR-222 ([4]; 6-h, 500 mg δ-tocotrienol): 51%
plasma miR-342 ([4]; 6-h, 500 mg δ-tocotrienol): 52%
expression of miR-107, miR-122a, and miR-132 [4, 11]: up-regulated
gene expression of miR-34a [4, 11]: down-regulated
